Measurements: ChEMBL document CHEMBL4033731, “Structural development of 1,2,3,4-tetrahydroisoquinoline-type positive allosteric modulators of prostacyclin receptor (IPPAMs) to improve metabolic stability, and investigation of metabolic fate” (Bioorg Med Chem Lett, 2017)
Each block holds one compound with its values, some of them ahead of it. The source made the active and inactive calls. The calls are words filed in the database; no cut-off is given here.

Legend:
[1] = Drug level in human hepatic microsomes treated with 10 uM of 2-((1-tert-butyl-1H-tetrazol-5-yl)(3,4-dihydroisoquinolin-2(1H)-yl)methyl)-6-fluorophenol assessed as drug formation at 10 uM incubated for 90 mins at 37 degC by HPLC-MS/MS method relative to control; assay type: ADME, Liver, Microsome; conditions: 1.5 h
[2] = target: Prostacyclin receptor (Homo sapiens) (UniProt P43119); assay: Positive allosteric modulator activity at human prostacyclin receptor expressed in CHO-K1 cells assessed as compound concentration needed to shift agonist concentration response curve leftward by 2-fold by measuring CAMP accumulation; assay type: cell-based
[3] = Half life in human hepatic microsomes at 0.1 uM by HPLC-MS/MS method; assay type: ADME, Microsome; conditions: liver microsomes
[4] = Drug metabolism in human hepatic microsomes assessed as peak area for parent compound at 10 uM incubated for 90 mins at 37 degC by HPLC-MS/MS method relative to control; assay type: ADME, Microsome; conditions: liver microsomes, read-out: Stability
[5] = Drug metabolism in human hepatic microsomes assessed as 2-((1-tert-butyl-1H-tetrazol-5-yl)(3,4-dihydroisoquinolin-2(1H)-yl)methyl)-4-fluorophenol formation at 10 uM incubated for 90 mins at 37 degC by HPLC-MS/MS method relative to control; assay type: ADME, Liver, Microsome; conditions: 1.5 h
[6] = Drug metabolism in human hepatic microsomes assessed as 2-((3,4-dihydroisoquinolin-2(1H)-yl)(1-(1-hydroxy-2-methylpropan-2-yl)-1H-tetrazol-5-yl)methyl)-6-fluorophenol formation at 10 uM incubated for 90 mins at 37 degC by HPLC-MS/MS method relative to control; assay type: ADME, Liver, Microsome; conditions: 1.5 h
[7] = target: Prostacyclin receptor (Homo sapiens) (UniProt P43119); assay: Positive allosteric modulator activity at human prostacyclin receptor expressed in CHO-K1 cells assessed as compound concentration needed to shift agonist concentration response curve leftward by 2-fold by measuring CAMP accumulation at 100 uM; assay type: cell-based

Sequence of Prostacyclin receptor (Homo sapiens) (P43119 whole entry): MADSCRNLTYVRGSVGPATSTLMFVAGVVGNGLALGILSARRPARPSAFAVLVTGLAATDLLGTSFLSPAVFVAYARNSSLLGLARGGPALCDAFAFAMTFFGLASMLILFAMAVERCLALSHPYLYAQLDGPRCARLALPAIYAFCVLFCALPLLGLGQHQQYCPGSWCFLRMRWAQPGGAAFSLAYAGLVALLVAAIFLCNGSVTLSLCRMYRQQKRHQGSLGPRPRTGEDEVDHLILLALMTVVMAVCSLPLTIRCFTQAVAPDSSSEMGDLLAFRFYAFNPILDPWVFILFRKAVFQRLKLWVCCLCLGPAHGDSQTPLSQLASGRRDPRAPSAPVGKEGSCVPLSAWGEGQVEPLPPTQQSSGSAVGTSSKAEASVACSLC

SMILES: CC(C)(CO)n1nnnc1C(c1cccc(F)c1O)N1CCc2ccccc2C1 (centres undefined)
Drug metabolism [1]: Metabolite_Detected

SMILES: CC(C)(C)n1nnnc1C(c1cccc(F)c1O)N1CCc2ccccc2C1 (centres undefined)
Activity [2]: 8.2 µM | half-life at 0.1 µM [3]: 21 min | remaining at 1.5 h, 10 µM [4]: 1.04% | Drug metabolism [5]: Metabolite_Detected | Drug metabolism [6]: Metabolite_Detected

SMILES: COc1ccccc1C(c1nnnn1C(C)(C)C)N1CCC2CCCCC2C1 (centres undefined)
Activity [2]: 6.2 µM | half-life at 0.1 µM [3]: 3 min

SMILES: CC(C)(C)n1nnnc1C(c1ccccc1)N1CCc2ccccc2C1 (centres undefined)
Activity [2]: 6.9 µM | half-life at 0.1 µM [3]: 6 min

SMILES: COc1ccccc1C(c1nnnn1C(C)(C)C)N1CCc2ccc(F)cc2C1 (centres undefined)
Activity [2]: 15.2 µM | half-life at 0.1 µM [3]: 6 min

SMILES: CC(C)(C)NC(=O)C(c1ccccc1)N1CCc2ccccc2C1 (centres undefined)
Activity [2]: inactive | half-life at 0.1 µM [3]: 6 min | Activity [7]: inactive

The remaining lines, values ahead:

Drug metabolism [1]: Metabolite_Detected
SMILES: CC(C)(C)n1nnnc1C(c1cccc(O)c1O)N1CCc2ccccc2C1 (centres undefined)

Activity [2]: 4.7 µM | half-life at 0.1 µM [3]: 3 min
SMILES: CC(C)(C)n1nnnc1C(c1ccccc1F)N1CCc2ccccc2C1 (centres undefined)

Activity [2]: 12 µM | half-life at 0.1 µM [3]: 5 min
SMILES: CC(C)(C)n1nnnc1C(c1cc(F)ccc1O)N1CCc2ccccc2C1 (centres undefined)

Activity [2]: 1.4 µM | half-life at 0.1 µM [3]: 7 min
SMILES: CC(C)(C)n1nnnc1C(c1ccccc1O)N1CCc2ccccc2C1 (centres undefined)

Activity [2]: 4.3 µM | half-life at 0.1 µM [3]: 8 min
SMILES: COc1ccccc1C(c1nnnn1C(C)(C)C)N1CCc2ccccc2C1 (centres undefined)
